Measurements: US20110039896A1, “NOVEL 2-PYRROLIDINYL-3-AMIDO-6-AMINO-PYRIDINE DERIVATIVES USEFUL AS POTASSIUM CHANNEL ACTIVATORS” (NeuroSearch A/S, priority 2007, published 2011)

Target: T1, human Kv72+3 channels (Homo sapiens, UniProt O43525+O43526)
T1 construct: expressed in transfected cells
Experiment: Patch-clamp on HEK293 cells stably expressing human Kv7.2+3 channels
Assay type: cell-based
Settings: conc. 0.03 μM, −30 mV, 20 ms, current relative to baseline current defined as 100%, read-out: IK (%)
From the text: The effect obtained by these channel activators is described as a percentage increase in baseline current at a given concentration. The baseline current is defined as 100%, and an increase in current is expressed relative to this, i.e. an increase from 1 nA to 1.2 nA is reported as 120%.

CC(C)(C)CC(=O)Nc1ccc(NCc2ccc3c(c2)OCO3)nc1N1CCCC1 [Compound 14, N-{6-[(Benzo[1,3]dioxol-5-ylmethyl)-amino]-2-pyrrolidin-1-yl-pyridin-3-yl}-3,3-dimethyl-butyramide]
activity at 0.03 µM: 155%

N#Cc1ccc(CNc2ccc(NC(=O)Cc3cc(F)cc(F)c3)c(N3CCCC3)n2)cc1 [Compound 17, N-[6-(4-Cyano-benzylamino)-2-pyrrolidin-1-yl-pyridin-3-yl]-2-(3,5-difluoro-phenyl)-acetamide]
activity at 0.03 µM: 490%

CC(C)(C)CC(=O)Nc1ccc(NCc2ccc(F)cc2)nc1N1CCCC1 [Compound 9, N-[6-(4-Fluoro-benzylamino)-2-pyrrolidin-1-yl-pyridin-3-yl]-3,3-dimethyl-butyramide]
activity at 0.03 µM: 239%

COc1ccc(CNc2ccc(NC(=O)Cc3cc(F)cc(F)c3)c(N3CCCC3)n2)cc1 [Compound 19]
activity at 0.03 µM: 842%

O=C(Nc1ccc(NCc2ccc(F)cc2)nc1N1CCCC1)[C@@H]1C[C@H]1c1ccccc1 [Compound 7, (R)-2-Phenyl-cyclopropanecarboxylic acid [6-(4-fluoro-benzylamino)-2-pyrrolidin-1-yl-pyridin-3-yl]-amide]
activity at 0.03 µM: 192%

O=C(Cc1ccc(C(F)(F)F)c(F)c1)Nc1ccc(NCc2ccc(F)cc2)nc1N1CCCC1 [Compound 1, N-[6-(4-Fluoro-benzylamino)-2-pyrrolidin-1-yl-pyridin-3-yl]-2-(3-fluoro-4-trifluoromethyl-phenyl)-acetamide]
activity at 0.03 µM: 306%
